Measurements taken from patent publication US20130035257A1, “MICROFLUIDIC ARRAYS AND METHODS FOR THEIR PREPARATION AND USE” (UNIVERSITY OF BRITISH COLUMBIA, priority 2011, published 2013).

Assays:
[1] = test system: human MCF-7 breast tumor cells; settings: MCF-7 cells in alginate-poly-L-lysine-alginate microcapsules, MTT assay; cited from earlier work
[2] = test system: LCC6/Her2 breast tumor cells; test: in vitro; assay type: cell-based
Protocol: (§1) Doxorubicin (Dox) is an anthracycline molecule that intercalates in DNA and inhibits topoisomerase II. As an anticancer agent, the drug inhibits RNA and DNA synthesis. During on-chip drug testing, the Dox solution was prepared with 0.2% dimethylsulfoxide (DMSO) and DMEM culture medium. After visual confirmation of spheroid formation at four days, the drug-free culture media was replaced with 400, 800, 1200, and 1600 nM Dox solutions. The drug solution was continuously perfused through the device at a rate of 0.25 μl min^−1 for two days. DMSO controls, in which the corresponding amount of DMSO in culture medium with no drug, were also carried out. Toxicity was examined after 48 h of drug dosing by quantifying cell viability.
(§2) Cell viability was indicated with live/dead calcein AM/ethidium homodimer-1 stains (Invitrogen), which were applied through pressure-driven flow control to the cells while they were entrapped in alginate in the microdevice. […]
(§3) All stained samples were imaged using fluorescence microscopy. […] The number of living cells NG was calculated by counting the number of pixels in the green (living cells) channel in the confocal images and normalizing for the size of one cell. The number of dead cells NR was similarly calculated using the red pixels. […]
(§4) The survival rate was calculated as NG/(NG+NR). The proliferation rate is calculated as (N4−N1)/N1 before drug treatment, and as (N6−N4)/N4 after drug treatment, where Nx is the number of cells on the xth day.
(§5) Images from confocal microscopy were used to determine cell survival rate and proliferation inside the three dimensional multicellular aggregates after exposure to different doxorubicin concentrations. […] Doxorubicin was the perfused with (a) 0, (b) 400, (c) 800, (d) 1200, and (e) 1600 nM doxorubicin for two days, and cell viability was measured at the end of that period after staining with a live/dead viability kit and confocal imaging. […] The number of living cells NG was calculated by counting the number of pixels (living cells) channel in the confocal image and normalizing for the size of one cell. […]

[3] = at 25° C.; cited from earlier work
A549 human lung cells = settings: cited from earlier work
LCC6/Her2 cells = test: MTS assay of cell activity, cells cultured within alginate gel beads; assay type: cell-based, human; settings: 48 h treatment with 800 nM doxorubicin
Protocol: as §1
For LCC6/Her2 cells cultured within alginate gel beads 100, cell activity as measured using the standard MTS assay was 35%, while cell viability as measured using the Live/Dead stains was 83%, in both cases after 48 h treatment with 800 nM doxorubicin. […] Thus, the absolute number of surviving cells, in addition to the percentage of living or dead cells, may be an important parameter in drug screening. This can be obtained by processing the data from image-based high-throughput screening systems.

[4] = test system: EMT-6 mammary sarcoma cells; settings: EMT-6 spheroids created in a spinner flask, different exposure doses; cited from earlier work
in vitro = assay type: cell-based; settings: human
Protocol: as §1, §2, §3, §4, §5

[5] = test system: LCC6/Her2 breast tumor cells; test: Cell proliferation rate of tumor spheroids on-chip from confocal cell counts; assay type: cell-based, human; settings: 1600 nM Dox exposure, 2 days
Protocol: as §1
All stained samples were imaged using fluorescence microscopy. The imaging system consisted of a fluorescent microscope (Nikon TE2000U) and a cooled, color CCD camera (Retiga). […] The number of living cells NG was calculated by counting the number of pixels in the green (living cells) channel in the confocal images and normalizing for the size of one cell. The number of dead cells NR was similarly calculated using the red pixels. […]
The survival rate was calculated as NG/(NG+NR). The proliferation rate is calculated as (N4−N1)/N1 before drug treatment, and as (N6−N4)/N4 after drug treatment, where Nx is the number of cells on the xth day. […]

O=c1[nH]cc(F)c(=O)[nH]1 [5-fluorouracil]
inhibition rates in multicellular spheroids versus monolayers [1]: lower inhibition rates in multicellular spheroids than in monolayers

CCCCCCCCCCCCCCCC [Hexadecane, n-hexadecane]
additional toxicity from droplet formation solvent (survival rate, bead versus microchannel) [2]: did not indicate any additional toxicity effects
solubility in the aqueous phase [3]: 9.0×10^−8 g/100 g water

COc1cccc2c1C(=O)c1c(O)c3c(c(O)c1C2=O)C[C@@](O)(C(=O)CO)C[C@@H]3O[C@H]1C[C@H](N)[C@H](O)[C@H](C)O1 [doxorubicin, Doxorubicin]
multicellular resistance index, ratio [IC50, spheroid/IC50, monolayer] (A549 human lung cells): 35
cell activity as measured using the standard MTS assay (LCC6/Her2 cells): 35%
resistance of spheroids versus monolayer cells [4]: higher resistance
inhibition rates in multicellular spheroids versus monolayers [1]: lower inhibition rates in multicellular spheroids than in monolayers
cytotoxicity at 48 h, 1600 nM (in vitro): 20%
viability at 48 h, 800 nM (in vitro): 83%
proliferation rate change (FIG. 10) [5]: marked proliferation decrease

CO[C@@]12[C@H](COC(N)=O)C3=C(C(=O)C(C)=C(N)C3=O)N1C[C@@H]1N[C@@H]12 [mitomycin C]
inhibition rates in multicellular spheroids versus monolayers [1]: lower inhibition rates in multicellular spheroids than in monolayers

CC[C@]1(O)C[C@@H]2CN(CCc3c([nH]c4ccccc34)[C@@](C(=O)OC)(c3cc4c(cc3OC)N(C)[C@H]3[C@@](O)(C(=O)OC)[C@H](OC(C)=O)[C@]5(CC)C=CCN6CC[C@]43[C@@H]65)C2)C1 [vinblastine]
multicellular resistance index, ratio [IC50, spheroid/IC50, monolayer] (A549 human lung cells): 6625
